The values that follow are results of earlier work, collected in patent US12091408B2, “Store overload-induced calcium release inhibitors and methods for producing and using the same” (UTI Limited Partnership, priority 2013, dated 2024).

One data set concerns β-adrenergic receptor. The note with it: previously shown by the inventors; cited from earlier work.
Data set [1] relates to ventricular arrhythmias and sudden death. The note with it: mice, reported; via enhanced FKBP12.6 binding to RyR2; cited from earlier work.

`COc1ccccc1OCCNCC(O)COc1cccc2[nH]c3ccccc3c12` (stereo not drawn) [Compound 1, carvedilol]: the “β-blockade (order of magnitude)” value in the data set on β-adrenergic receptor is listed as “nanomolar”.
As to `COc1ccc2c(c1)CN(C)CCS2` [Compound 99, S107], the “suppression of ventricular arrhythmias and sudden death” value in data set [1] is “suppress ventricular arrhythmias and sudden death in mice”.
Turning to `COc1ccc2c(c1)CN(C(=O)CCN1CCC(Cc3ccccc3)CC1)CCS2.Cl` [Compound 102, JTV519], in data set [1], the “suppression of ventricular arrhythmias and sudden death” value is “suppress ventricular arrhythmias and sudden death in mice”.
